Source: US12371748B2, “Genetic markers for predicting responsiveness to therapy with HDL-raising or HDL mimicking agent” (Hoffmann-La Roche Inc., priority 2014, dated 2025)

Test system: patients with evidence of coronary artery disease
Experiment: dal-PLAQUE-2: change in carotid intima-media thickness (B-mode ultrasound) by ADCY9 genotype
Format: in vivo, human
Text: The dal-PLAQUE-2 study (Tardif J C et al, Circulation Cardiovascular imaging 2011; 4:319-33) was a phase 3b multicenter, double-blind, randomized, placebo-controlled, parallel group trial designed to evaluate the effect of dalcetrapib on atherosclerotic disease progression in patients with evidence of coronary artery disease and carotid intima media thickness of at least 0.65 mm in the far wall of the common carotid arteries, as assessed by B-mode ultrasonography. A total of 931 patients were randomized to receive dalcetrapib 600 mg daily or matching placebo with intended treatment duration of 24 months. However, the trial was terminated prematurely concurrent with the termination of dal OUTCOMES (the latter due to futility). Patients continued study medication until they returned for follow-up carotid imaging at 12 months. Carotid B-mode ultrasound recordings at baseline, month 6, and month 12 were analyzed centrally at the core laboratory of the Montreal Heart Institute. Intima-media thickness (IMT) was analyzed on the far wall of the common carotid arteries. A segment of 10 mm in length of the common carotid artery was analyzed on serial examinations using an automated edge detection software (Carotid Analyzer, Medical Imaging Applications, Coralville, Iowa). Among the 411 participants in the dal-PLAQUE-2 trial who consented to the genetic study, 386 had imaging measures at baseline, 6 months and 12 months (194 and 192 in the dalcetrapib and placebo arms respectively). DNA was extracted from whole blood. The research protocols were approved by the relevant institutional review boards or ethics committees and all human participants gave written informed consent.
All acquired carotid ultrasound recordings were analyzed at the core laboratory of the Montreal Heart Institute by experienced technicians supervised by a physician. Images were required to meet quality and inclusion and exclusion criteria for eligibility prior to random assignment to study treatment. The methods for carotid intima-media thickness analysis included side-by-side viewing of baseline and follow-up studies.
Carotid arterial wall segments were assessed in a longitudinal view, perpendicular to the ultrasound beam, with a horizontal display of the arterial image in order to view the interfaces between blood and vascular structures on the longest possible segment. The localization of the end of the common carotid artery was used as the landmark in repositioning and analyzing comparative length of segments in baseline and follow-up studies. Intima-media thickness was analyzed on the far wall of the right and left common carotid arteries, to reduce variability of measurements. The average of the mean intima-media thickness values of the right and left common carotid arteries was used. A matched segment of 10 mm in length of the common carotid artery was analyzed on serial examinations (baseline, 6 months and 12 months), starting 5 mm proximal to the carotid bifurcation. The edge detection software Carotid Analyzer (Medical Imaging Applications LLC, Coralville, Iowa) was used to analyze intima-media thickness using the automated option. Two sets of carotid artery borders were identified: First, the media-adventitia borders were determined and verified by the reader. When required, their locations were semi-automatically modified to the correct location. When these borders were approved, the lumen-intima boundaries were automatically detected using the media-adventitia borders for guidance. Frames from looped sequences of intima-media thickness were selected for reading, and poor quality outlier frames were removed from the analysis when required.
For the dal-Plaque-2 population, mixed regression models for repeated measures analysis were tested in SAS software. The dal-Plaque-2 tested endpoint was the mean of IMT measures of common carotid arteries at the 6-month and the 12-month visits, using the baseline measure as covariate. […]

With CCC(CC)CC1(C(=O)Nc2ccccc2SC(=O)C(C)C)CCCCC1 [dalcetrapib, thioisobutyric acid S-(2-{[1-(2-ethyl-butyl)-cyclohexanecarbonyl]-amino}-phenyl) ester] the “Change from baseline in carotid intima-media thickness, Mean” value (shortened to “Change from baseline”) (rs1967309, heterozygotes, M12) was −0.001 mm, the “Change from baseline” value (rs1967309, homozygotes for major allele, M06) was 0.006 mm and the “Change from baseline” value (rs1967309, homozygotes for major allele, M12) was 0.005 mm. For the same compound, the “Change from baseline” value (rs1967309, homozygotes for minor allele, M12) was −0.021 mm, the “change in IMT after 12 months of treatment” value (from here on “change in IMT after 12 months”) (rs1967309 AA homozygotes) was −0.021±0.083 mm and the “change in IMT after 12 months” value (rs1967309 GG homozygotes) was “+0.005±0.042 mm”. The “change in IMT after 12 months” value (rs1967309 heterozygotes) was −0.001±0.048 mm, the “Change from baseline” value (rs2238448, heterozygotes, M06) was −0.003 mm and the “Change from baseline” value (rs2238448, heterozygotes, M12) was 0.000 mm. The “Change from baseline” value (rs2238448, homozygotes for major allele, M06) was 0.011 mm, the “Change from baseline” value (rs2238448, homozygotes for major allele, M12) was 0.009 mm and the “Change from baseline” value (rs2238448, homozygotes for minor allele, M06) was −0.010 mm. For the same compound, the “Change from baseline” value (rs2238448, homozygotes for minor allele, M12) was −0.027 mm, the “change in IMT after 12 months” value (rs2238448 CC (common allele homozygotes)) was “+0.009±0.038 mm” and the “change in IMT after 12 months” value (rs2238448 TT (minor allele homozygotes)) was −0.027±0.079 mm. For the same compound, the “change in IMT after 12 months” value (rs2238448 heterozygotes) was 0.000±0.048 mm, the “Change from baseline” value (rs2239310, heterozygotes, M06) was −0.004 mm and the “Change from baseline” value (rs2239310, heterozygotes, M12) was −0.003 mm. The “Change from baseline” value (rs2239310, homozygotes for major allele, M06) was 0.004 mm, the “Change from baseline” value (rs2239310, homozygotes for major allele, M12) was 0.001 mm and the “Change from baseline” value (rs2239310, homozygotes for minor allele, M06) was −0.001 mm. For the same compound, the “Change from baseline” value (rs2239310, homozygotes for minor allele, M12) was −0.002 mm, the “Change from baseline” value (rs2283497, heterozygotes, M06) was −0.001 mm and the “Change from baseline” value (rs2283497, heterozygotes, M12) was 0.005 mm. For the same compound, the “Change from baseline” value (rs2283497, homozygotes for minor allele, M06) was −0.005 mm, the “Change from baseline” value (rs2283497, homozygotes for minor allele, M12) was −0.006 mm and the “Change from baseline” value (rs2531967, heterozygotes, M06) was −0.008 mm. The “Change from baseline” value (rs2531967, heterozygotes, M12) was −0.006 mm, the “Change from baseline” value (rs2531967, homozygotes for minor allele, M06) was −0.007 mm and the “Change from baseline” value (rs2531967, homozygotes for minor allele, M12) was −0.031 mm. The “Change from baseline” value (rs2531971, heterozygotes, M06) was −0.002 mm, the “Change from baseline” value (rs2531971, heterozygotes, M12) was 0.002 mm and the “Change from baseline” value (rs2531971, homozygotes for major allele, M06) was 0.008 mm. For the same compound, the “Change from baseline” value (rs2531971, homozygotes for major allele, M12) was −0.002 mm, the “Change from baseline” value (rs2531971, homozygotes for minor allele, M06) was −0.010 mm and the “Change from baseline” value (rs2531971, homozygotes for minor allele, M12) was −0.016 mm. The “Change from baseline” value (rs3730119, heterozygotes, M06) was −0.002 mm, the “Change from baseline” value (rs3730119, heterozygotes, M12) was 0.004 mm and the “Change from baseline” value (rs3730119, homozygotes for minor allele, M06) was 0.006 mm. The “Change from baseline” value (rs3730119, homozygotes for minor allele, M12) was −0.028 mm, the “Change from baseline” value (rs4786454, heterozygotes, M06) was −0.007 mm and the “Change from baseline” value (rs4786454, heterozygotes, M12) was −0.005 mm. The “Change from baseline” value (rs4786454, homozygotes for minor allele, M06) was −0.020 mm, the “Change from baseline” value (rs4786454, homozygotes for minor allele, M12) was −0.049 mm and the “Change from baseline” value (rs8049452, heterozygotes, M06) was −0.002 mm. For the same compound, the “Change from baseline” value (rs8049452, heterozygotes, M12) was 0.003 mm, the “Change from baseline” value (rs8049452, homozygotes for major allele, M06) was −0.008 mm and the “Change from baseline” value (rs8049452, homozygotes for major allele, M12) was −0.013 mm. For the same compound, the “Change from baseline” value (rs8049452, homozygotes for minor allele, M06) was 0.020 mm, the “Change from baseline” value (rs8049452, homozygotes for minor allele, M12) was 0.006 mm and the “Change from baseline” value (rs8061182, heterozygotes, M06) was 0.000 mm. The “Change from baseline” value (rs8061182, heterozygotes, M12) was 0.007 mm and the “Change from baseline” value (rs8061182, homozygotes for minor allele, M06) was 0.016 mm.
